Assay results published in US20020012630A1, “Methods for testing compounds useful in treating diabetic complications” (priority 2000, published 2002).
Where no end group is shown, it is not given here.

What was measured:
[1] = tested on: experimental wounds of streptozotocin-induced diabetic rats; assay: Wound healing in experimental wounds of streptozotocin-induced diabetic rats; format: in vivo, rat; settings: 6-week streptozotocin-induced diabetic rats treated with 20 mg/kg, compared with normal untreated rats; FIGS. 5, 6A-6B
Protocol: The blood glucose levels of streptozotocin-induced diabetic rats was maintained at between 300-350 mg/dL with subcutaneous injection of insulin. Experimental wounds, having a diameter of […] and including the panniculus carnosus muscle, were made on the backs of diabetic rats. Wounds were serially photographed with a digital camera at the time of wounding, and then again every three days after wound induction until the time of closure, and the area of the wound measured (and expressed as cm^2). Wound closure was defined as complete epithelialization. The degree of wound contraction is calculated as: {(size of wound at day 0−size of wound at day X)/size of wound at day 0)}×100. Diabetic rats were administered 20 mg/kg of the aldose reductase inhibitor 3(4,5,7-triflurobenzothiazol-2-yl)methyl-indole-N-acetic acid at either the time of diabetes induction (simulating treatment prior to diabetic complications) or 6 weeks after diabetes induction (simulating treatment at the time of diabetic complications).

[2] = tested on: full-thickness skin wounds of db/db mice; settings: three doses on days 0, 1 and 2 under Tegederm wound dressing, dose of 10-1000 nM; cited from earlier work

O=C(O)Cn1cc(Cc2nc3c(F)c(F)cc(F)c3s2)c2ccccc21 [3-(4,5,7-triflurobenzothiazol-2-yl)methyl-indole-N-acetic acid]
wound healing rate (wound size and wound contraction) [1]: healed at the same rate as the wounds in normal rats

Substance P (RPKPQQFFGLM-NH2; ends and bridges not checked; UniProt P20366 58-68, looked up) [SP]
time of healing [2]: improved time of healing
